The term IC50 denotes the concentration that inhibits the measured activity by half.

IC50 data for 30 molecules are collected here from patent publication US20220235065A1 (Epizyme, Inc., priority 2016, published 2022).

In one assay the target is T1, EHMT1 (Homo sapiens, UniProt Q9H9B1).
T1 sequence (Q9H9B1 1-1298): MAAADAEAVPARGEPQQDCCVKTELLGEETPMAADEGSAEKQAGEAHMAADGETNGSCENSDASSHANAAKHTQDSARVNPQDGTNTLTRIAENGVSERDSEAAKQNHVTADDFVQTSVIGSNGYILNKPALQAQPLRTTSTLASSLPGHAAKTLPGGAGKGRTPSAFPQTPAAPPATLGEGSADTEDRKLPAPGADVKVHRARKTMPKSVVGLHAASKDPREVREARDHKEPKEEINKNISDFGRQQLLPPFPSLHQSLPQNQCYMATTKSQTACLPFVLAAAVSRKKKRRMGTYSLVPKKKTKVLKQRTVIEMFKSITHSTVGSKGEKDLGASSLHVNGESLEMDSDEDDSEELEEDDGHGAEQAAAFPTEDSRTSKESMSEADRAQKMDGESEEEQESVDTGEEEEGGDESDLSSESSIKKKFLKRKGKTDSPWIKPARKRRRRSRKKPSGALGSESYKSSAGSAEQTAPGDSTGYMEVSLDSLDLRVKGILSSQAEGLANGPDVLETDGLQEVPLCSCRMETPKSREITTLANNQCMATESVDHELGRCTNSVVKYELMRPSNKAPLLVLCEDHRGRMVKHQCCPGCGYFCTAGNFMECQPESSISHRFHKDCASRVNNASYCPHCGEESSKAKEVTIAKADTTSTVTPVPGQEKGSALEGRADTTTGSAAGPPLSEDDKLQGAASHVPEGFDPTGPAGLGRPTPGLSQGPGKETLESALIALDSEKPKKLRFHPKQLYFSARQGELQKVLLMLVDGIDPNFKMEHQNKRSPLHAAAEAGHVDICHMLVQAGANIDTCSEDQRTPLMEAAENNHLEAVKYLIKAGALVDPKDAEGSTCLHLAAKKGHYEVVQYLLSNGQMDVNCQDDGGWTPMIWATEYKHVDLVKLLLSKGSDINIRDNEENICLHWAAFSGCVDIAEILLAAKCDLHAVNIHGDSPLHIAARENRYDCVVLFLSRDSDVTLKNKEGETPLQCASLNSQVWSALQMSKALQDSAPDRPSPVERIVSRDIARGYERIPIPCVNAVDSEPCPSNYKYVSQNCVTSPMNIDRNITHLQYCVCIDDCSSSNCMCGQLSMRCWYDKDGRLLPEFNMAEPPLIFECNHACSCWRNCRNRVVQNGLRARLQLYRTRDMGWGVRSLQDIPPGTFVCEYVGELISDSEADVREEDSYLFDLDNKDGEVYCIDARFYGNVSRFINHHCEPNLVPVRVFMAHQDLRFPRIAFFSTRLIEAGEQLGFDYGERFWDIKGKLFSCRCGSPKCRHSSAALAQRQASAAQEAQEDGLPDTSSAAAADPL
Kind of assay: EHMT1 PEP (EHMT1 peptide enzyme assay). The format is biochemical. To be noted: peptide substrate enzyme assay.

In assay [1] the target is T2, recombinant purified human EHMT2 913-1193 (Homo sapiens, UniProt Q96KQ7).
T2 construct: Recombinant purified human EHMT2 913-1193 (55 μM) synthesized by Viva was used for all experiments; purchased Viva
T2 sequence (Q96KQ7 913-1193): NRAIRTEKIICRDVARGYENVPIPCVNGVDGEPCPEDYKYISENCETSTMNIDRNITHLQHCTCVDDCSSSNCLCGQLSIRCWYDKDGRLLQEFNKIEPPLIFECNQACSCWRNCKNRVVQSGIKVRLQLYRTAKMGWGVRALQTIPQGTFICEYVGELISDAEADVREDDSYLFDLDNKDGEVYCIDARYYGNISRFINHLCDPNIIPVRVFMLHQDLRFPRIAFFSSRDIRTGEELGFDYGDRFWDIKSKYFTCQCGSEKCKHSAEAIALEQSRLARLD
Kind of assay: EHMT2 enzyme assay on histone peptide substrate (3H-SAM Flashplate). Format: biochemical. To be noted: read-out: EHMT2 PEP (IC50 μM). The procedure:
Recombinant purified human EHMT2 913-1193 (55 μM) synthesized by Viva was used for all experiments. Biotinylated histone peptides were synthesized by Biopeptide and HPLC-purified to >95% purity. Streptavidin Flashplates and seals were purchased from PerkinElmer and 384 Well V-bottom Polypropylene Plates were from Greiner. ^3H-labeled S-adenosylmethionine (3H-SAM) was obtained from American Radiolabeled Chemicals with a specific activity of 80 Ci/mmol. Unlabeled SAM and S-adenosylhomocysteine (SAH) were obtained from American Radiolabeled Chemicals and Sigma-Aldrich respectively. Flashplates were washed in a Biotek ELx-405 with 0.1% Tween. 384-well Flashplates and 96-well filter binding plates were read on a TopCount microplate reader (PerkinElmer). Compound serial dilutions were performed on a Freedom EVO (Tecan) and spotted into assay plates using a Thermo Scientific Matrix PlateMate (Thermo Scientific). Reagent cocktails were added by Multidrop Combi (Thermo Scientific).
General Procedure for EHMT2 Enzyme Assay on Histone Peptide Substrate.
10-point curves of test compounds were made on a Freedom EVO (Tecan) using serial 3-fold dilutions in DMSO, beginning at 2.5 mM (final top concentration of compound was 50 μM and the DMSO was 2%). A 1 μL aliquot of the inhibitor dilution series was spotted in a polypropylene 384-well V-bottom plate (Greiner) using a Thermo Scientific Matrix PlateMate (Thermo Scientific). The 100% inhibition control consisted of 1 mM final concentration of the product inhibitor S-adenosylhomocysteine (SAH, Sigma-Aldrich). Compounds were incubated for 30 minutes with 40 μL per well of 0.031 nM EHMT2 (recombinant purified human EHMT2 913-1193, Viva) in 1× assay buffer (20 mM Bicine [pH 7.5], 0.002% Tween 20, 0.005% Bovine Skin Gelatin and 1 mM TCEP). 10 μL per well of substrate mix comprising assay buffer, ^3H-SAM (3H-labeled S-adenosylmethionine, American Radiolabeled Chemicals, specific activity of 80 Ci/mmol), unlabeled SAM (American Radiolabeled Chemicals), and peptide representing histone H3 residues 1-15 containing C-terminal biotin (appended to a C-terminal amide-capped lysine, synthesized by Biopeptide and HPLC-purified to greater than 95% purity) were added to initiate the reaction (both substrates were present in the final reaction mixture at their respective Km values, an assay format referred to as “balanced conditions”). Reactions were incubated for 60 minutes at room temperature and quenched with 10 μL per well of 400 μM unlabeled SAM, then transferred to a 384-well streptavidin Flashplate (PerkinElmer) and washed in a Biotek ELx-405 well washer with 0.1% Tween after 60 minutes. 384-well Flashplates were read on a TopCount microplate reader (PerkinElmer).
IC50 curves were generated using triplicate wells per concentration of compound. The IC50 is the concentration of compound at which measured methylation is inhibited by 50% as interpolated from the dose response curves. IC50 values were calculated using a non-linear regression (variable slope-four parameter fit model) with by the following formula
where Top is fixed at 100% and Bottom is fixed to 0%, [I]=concentration of inhibitor, IC50=half maximal inhibitory concentration and n=Hill Slope.

As for `CNCc1cnn(-c2cc3nc(NC)n(C)c3cc2OC)c1` [Compound 179], the half-maximal inhibitory concentration (IC50) (at EHMT1; in assay [1]) was 0.1 to 1 µM in each case.

Consider `CNCc1cnn(-c2cc(Nc3nccc(NC)n3)ccc2OC)c1` [Compound 181, N2-(4-methoxy-3-(4-((methylamino)methyl)-1H-pyrazol-1-yl)phenyl)-N4-methylpyrimidine-2,4-diamine], for which the IC50 (at EHMT1; in assay [1]) was under 0.1 µM throughout.

On to `CNCc1cnn(-c2cc3nc(NC)cc(C4CCOCC4)c3cc2OC)c1` [Compound 184], for which the IC50 (against EHMT1; in assay [1]) was 0.1 to 1 µM in each case.

In the case of `CCNCc1cnn(-c2cc(Nc3nccc(NC)n3)ccc2OC)c1` [Compound 185], the IC50 (against EHMT1; in assay [1]) was 0.1 to 1 µM each time.

`CNCc1cnn(-c2cc3c(cc2OC)C2(CCC2)C(N)=N3)c1` [Compound 186]: the half-inhibitory concentration (IC50) (on EHMT1; in assay [1]) was under 0.1 µM in each case.

Turning to `CNCc1cnn(-c2cc3c(cc2OC)C2(CCC2)C(NC)=N3)c1` [Compound 187], the IC50 (against EHMT1; in assay [1]) was under 0.1 µM each time.

With `CNc1cc(C)nc(Nc2cnc(OC)c(-n3cc(C4CCCN4)cn3)c2)n1` (stereo not drawn) [Compound 188], the IC50 (on EHMT1; in assay [1]) was 0.1 to 1 µM each time.

Regarding `CNc1ccnc(Nc2ccc(OC)c(-n3cc(CNC4CCC4)nn3)c2)n1` [Compound 191], the IC50 against EHMT1 lay in the range of 0.1 to 1 µM; in assay [1], 1 to 10 µM.

For `CNC1=Nc2cc(-n3cc([C@H]4CCCN4)nn3)c(OC)cc2C12CCC2` [Compound 192], the concentration for half-maximal inhibition (IC50) (at EHMT1; in assay [1]) was under 0.1 µM throughout.

On to `COc1cc2c(cc1-n1cc([C@H]3CCCN3)nn1)N=C(N)C21CCC1` [Compound 193], for which the concentration for half-maximal inhibition (IC50) (against EHMT1; in assay [1]) was under 0.1 µM each time.

Take `COc1cc2c(cc1-n1cc(C3CCCN3)nn1)N=C(N)C21CCC1` (stereo not drawn) [Compound 194]: the IC50 (at EHMT1; in assay [1]) was under 0.1 µM throughout.

Regarding `COc1cc2c(cc1-n1cc([C@@H]3CCCN3)nn1)N=C(N)C21CCC1` [Compound 195], the half-maximal inhibitory concentration (IC50) (against EHMT1; in assay [1]) was 0.1 to 1 µM each time.

As for `CNc1cc(C2CCOCC2)c2cc(OC)c(-n3cc(C4CCCN4)nn3)cc2n1` (stereo not drawn) [Compound 196], the half-maximal inhibitory concentration (IC50) (on EHMT1; in assay [1]) was 0.1 to 1 µM each time.

Take `CNc1cc(C)nc(Nc2ccc(OC)c(-c3[nH]c4cnccc4c3F)c2)n1` [Compound 199]: the 50% inhibitory concentration (IC50) (against EHMT1; in assay [1]) was under 0.1 µM each time.

Regarding `CNc1cc(C)nc(Nc2ccc(OC)c(-c3[nH]c4cnccc4c3C)c2)n1` [Compound 200, N2-(4-methoxy-3-(3-methyl-1H-pyrrolo[2,3-c]pyridin-2-yl)phenyl)-N4,6-dimethylpyrimidine-2,4-diamine], the IC50 (against EHMT1; in assay [1]) was under 0.1 µM each time.

Take `CNc1cc(C)nc(Nc2ccc(OC)c(-c3cc4ncncc4[nH]3)c2)n1` [Compound 201]: the IC50 (at EHMT1; in assay [1]) was 1 to 10 µM in each case.

`COc1cc2c(cc1-c1cc3ccncc3[nH]1)N=C(N)C21CCC1` [Compound 202]: the IC50 (on EHMT1; in assay [1]) was under 0.1 µM throughout.

For `CNc1cc(C)nc(Nc2cnc(OC)c(-c3cc4ccncc4[nH]3)c2)n1` [Compound 204], the 50% inhibitory concentration (IC50) (at EHMT1; in assay [1]) was 1 to 10 µM in each case.

Regarding `COc1cc(NC2CCNCC2)ncc1-c1cc2ccncc2[nH]1` [Compound 205], the IC50 against EHMT1 is 1 to 10 µM; in assay [1], over 10 µM.

As to `CNc1cc(C)nc(Nc2ccc(OC)c(-c3cc4[nH]ccc4cn3)c2)n1` [Compound 206, N2-(4-methoxy-3-(1H-pyrrolo[3,2-c]pyridin-6-yl)phenyl)-N4,6-dimethylpyrimidine-2,4-diamine], the IC50 (against EHMT1; in assay [1]) was under 0.1 µM throughout.

`CNc1cc(C)nc(Nc2ccc(OC)c(-c3cc4[nH]c(C)cc4cn3)c2)n1` [Compound 207]: the concentration for half-maximal inhibition (IC50) (against EHMT1; in assay [1]) was under 0.1 µM in each case.

Take `COc1cc(NC2CCNCC2)ncc1-c1cc2[nH]ccc2cn1` [Compound 208]: the concentration for half-maximal inhibition (IC50) (on EHMT1; in assay [1]) was 1 to 10 µM throughout.

For the molecule `CNc1nc2cc(-c3cc4[nH]ccc4cn3)c(OC)cc2n1C` [Compound 209], the figures for the concentration for half-maximal inhibition (IC50) (at EHMT1; in assay [1]) were 0.1 to 1 µM and 1 to 10 µM, respectively.

In the case of `CNc1cc(C)nc(Nc2ccc(OC)c(-c3cc4[nH]cnc4cn3)c2)n1` [Compound 210], the values for the IC50 (at EHMT1; in assay [1]) were under 0.1 µM and 1 to 10 µM, respectively.

As for `CNc1cc(C)nc(Nc2ccc(OC)c(-n3cc([C@@H]4CCCN4)nn3)c2)n1` [Compound 212, (S)—N2-(4-methoxy-3-(4-(pyrrolidin-2-yl)-1H-1,2,3-triazol-1-yl)phenyl)-N4,6-dimethylpyrimidine-2,4-diamine], the IC50 (at EHMT1; in assay [1]) was under 0.1 µM in each case.

Turning to `CNc1cc(C)nc(Nc2ccc(OC)c(-n3cc([C@H]4CCCN4)nn3)c2)n1` [Compound 213], the IC50 against EHMT1 was under 0.1 µM; in assay [1] it was 0.1 to 1 µM.

As for `CNC1=Nc2cc(-c3cc4[nH]ccc4cn3)c(OC)cc2C12CCC2` [Compound 214], the IC50 (against EHMT1; in assay [1]) was under 0.1 µM in each case.

For the molecule `CNC1=Nc2cc(-c3cc4ccncc4[nH]3)c(OC)cc2C12CCC2` [Compound 215], the IC50 (on EHMT1; in assay [1]) was under 0.1 µM in each case.

For the molecule `CNC1=Nc2cc(-c3[nH]c4cnccc4c3Cl)c(OC)cc2C12CCC2` [Compound 216], the concentration for half-maximal inhibition (IC50) (against EHMT1; in assay [1]) was under 0.1 µM in each case.

In the case of `CNc1cc(C)nc(Nc2ccc(OC)c(-c3ccc4c(c3)NC(=O)C4)c2)n1` [Compound 218], the IC50 (against EHMT1; in assay [1]) was over 10 µM throughout.
